From PubChem BioAssay (NCI)
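A five-concentration, 48-hour dose response in 96-well plates underlies each endpoint, interpolated linearly between surrounding concentrations. TGI marks complete inhibition of growth.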

What was measured:
Experiment in all cases: growth of human tumour cells (NCI), 48 h
[1] = test system: 786-0 renal
[2] = test system: A498 renal
[3] = test system: A549 NSCLC
[4] = test system: ACHN renal
[5] = test system: CCRF-CEM leukemia
[6] = test system: COLO 205 colon
[7] = test system: DMS 114 small cell lung
[8] = test system: EKVX NSCLC
[9] = test system: HCC-2998 colon
[10] = test system: HCT-15 colon
[11] = test system: HL-60(TB) leukemia
[12] = test system: HOP-18 NSCLC
[13] = test system: HOP-62 NSCLC
[14] = test system: IGROV1 ovarian
[15] = test system: K-562 leukemia
[16] = test system: KM12 colon
[17] = test system: KM20L2 colon
[18] = test system: LOX IMVI melanoma
[19] = test system: LXFL 529 NSCLC
[20] = test system: M14 melanoma
[21] = test system: M19-MEL melanoma
[22] = test system: MALME-3M melanoma
[23] = test system: MOLT-4 leukemia
[24] = test system: NCI-H226 lung
[25] = test system: NCI-H23 lung
[26] = test system: NCI-H460 lung
[27] = test system: NCI-H522 lung
[28] = test system: OVCAR-3 ovarian
[29] = test system: OVCAR-5 ovarian
[30] = test system: OVCAR-8 ovarian
[31] = test system: RPMI-8226 leukemia
[32] = test system: RXF 393 renal
[33] = test system: RXF-631 renal
[34] = test system: SF-268 CNS
[35] = test system: SF-295 CNS
[36] = test system: SF-539 CNS
[37] = test system: SK-MEL-2 melanoma
[38] = test system: SK-MEL-28 melanoma
[39] = test system: SK-MEL-5 melanoma
[40] = test system: SK-OV-3 ovarian
[41] = test system: SN12C renal
[42] = test system: SNB-19 CNS
[43] = test system: SNB-75 CNS
[44] = test system: SNB-78 CNS
[45] = test system: SW-620 colon
[46] = test system: TK-10 renal
[47] = test system: U251 CNS
[48] = test system: UACC-257 melanoma
[49] = test system: UACC-62 melanoma
[50] = test system: UO-31 renal
[51] = test system: CAKI-1 renal
[52] = test system: DLD-1 colon
[53] = test system: DMS 273 small cell lung
[54] = test system: HCT-116 colon
[55] = test system: HOP-92 NSCLC
[56] = test system: HT29 colon
[57] = test system: OVCAR-4 ovarian
[58] = test system: XF 498 CNS
[59] = test system: SR leukemia
[60] = test system: DU-145 prostate

Compound C=CCCC(OCOCCOC)c1cc(C)c(O[Si](C)(C)C(C)(C)C)c(C)c1 (stereo not given) has a TGI [1] of 28.1 µM, a TGI [2] of 70.6 µM and a TGI [3] of 38.5 µM. The TGI [4] was 26.7 µM, the TGI [5] was 30.6 µM and the TGI [6] was 32.9 µM. For the same compound, the TGI [7] was 28 µM, the TGI [8] was 63.5 µM and the TGI [9] was 27.5 µM. The TGI [10] was 31.4 µM, the TGI [11] was 19.5 µM and the TGI [12] was 96.4 µM. It also gave a TGI [13] of 35.2 µM, a TGI [14] of 90.5 µM and a TGI [15] of 26.2 µM. For the same compound, the TGI [16] was 29.3 µM, the TGI [17] was 29 µM and the TGI [18] was 27.6 µM. For the same compound, the TGI [19] was over 100 µM, the TGI [20] was over 100 µM and the TGI [21] was 55.3 µM. It also gave a TGI [22] of 41.4 µM, a TGI [23] of 19.4 µM and a TGI [24] of 26.4 µM. The TGI [25] was 31.5 µM, the TGI [26] was 32.1 µM and the TGI [27] was 25.4 µM. The TGI [28] was 27.7 µM, the TGI [29] was 32.4 µM and the TGI [30] was 39.8 µM. The TGI [31] was 23.4 µM, the TGI [32] was 27.4 µM and the TGI [33] was 30.4 µM. For the same compound, the TGI [34] was 34.1 µM, the TGI [35] was 31.8 µM and the TGI [36] was 38.6 µM. For the same compound, the TGI [37] was 30.8 µM, the TGI [38] was 64.7 µM and the TGI [39] was 24.3 µM. For the same compound, the TGI [40] was 55.1 µM, the TGI [41] was 32.2 µM and the TGI [42] was 20.7 µM. For the same compound, the TGI [43] was 35.6 µM, the TGI [44] was over 100 µM and the TGI [45] was 33.2 µM. The TGI [46] was 41.2 µM, the TGI [47] was 27.3 µM and the TGI [48] was 26.6 µM. The TGI [49] was 38.1 µM and the TGI [50] was 23.9 µM.

CC(=O)OC(/C=C1/C=CC(=O)O1)COC(=O)c1ccccc1 (stereo not given) was tested, and the TGI [1] was over 31.2 µM, the TGI [2] was over 31.2 µM and the TGI [3] was over 31.2 µM. For the same compound, the TGI [4] was over 31.2 µM, the TGI [51] was over 31.2 µM and the TGI [5] was over 31.2 µM. For the same compound, the TGI [6] was over 31.2 µM, the TGI [52] was over 31.2 µM and the TGI [7] was over 31.2 µM. For the same compound, the TGI [53] was over 31.2 µM, the TGI [8] was over 31.2 µM and the TGI [9] was over 31.2 µM. The TGI [54] was over 31.2 µM, the TGI [11] was over 31.2 µM and the TGI [12] was over 31.2 µM. For the same compound, the TGI [13] was over 31.2 µM, the TGI [55] was over 31.2 µM and the TGI [56] was over 31.2 µM. It also gave a TGI [14] of over 31.2 µM, a TGI [15] of over 31.2 µM and a TGI [16] of over 31.2 µM. The TGI [17] was over 31.2 µM, the TGI [18] was over 31.2 µM and the TGI [19] was over 31.2 µM. For the same compound, the TGI [20] was over 31.2 µM, the TGI [21] was over 31.2 µM and the TGI [22] was over 31.2 µM. It also gave a TGI [24] of over 31.2 µM, a TGI [25] of over 31.2 µM and a TGI [26] of over 31.2 µM. For the same compound, the TGI [27] was over 31.2 µM, the TGI [28] was over 31.2 µM and the TGI [57] was over 31.2 µM. For the same compound, the TGI [29] was over 31.2 µM, the TGI [30] was over 31.2 µM and the TGI [31] was over 31.2 µM. The TGI [32] was over 31.2 µM, the TGI [34] was over 31.2 µM and the TGI [35] was over 31.2 µM. For the same compound, the TGI [36] was over 31.2 µM, the TGI [38] was over 31.2 µM and the TGI [39] was over 31.2 µM. For the same compound, the TGI [40] was over 31.2 µM, the TGI [41] was over 31.2 µM and the TGI [42] was over 31.2 µM. The TGI [43] was over 31.2 µM, the TGI [44] was over 31.2 µM and the TGI [45] was over 31.2 µM. For the same compound, the TGI [46] was over 31.2 µM, the TGI [47] was over 31.2 µM and the TGI [48] was over 31.2 µM. For the same compound, the TGI [49] was over 31.2 µM, the TGI [50] was over 31.2 µM and the TGI [58] was over 31.2 µM.

With O=S(=O)(/C=C/c1ccc(Cl)cc1Cl)Cc1ccccc1CS(=O)(=O)/C=C/c1ccc(Cl)cc1Cl the TGI [1] was over 100 µM, the TGI [2] was over 100 µM and the TGI [3] was over 100 µM. The TGI [4] was over 100 µM, the TGI [51] was over 100 µM and the TGI [5] was over 100 µM. It also gave a TGI [6] of over 100 µM, a TGI [52] of over 100 µM and a TGI [7] of over 100 µM. For the same compound, the TGI [53] was over 100 µM, the TGI [8] was over 100 µM and the TGI [9] was over 100 µM. It also gave a TGI [54] of over 100 µM, a TGI [10] of over 100 µM and a TGI [13] of over 100 µM. The TGI [55] was over 100 µM, the TGI [56] was over 100 µM and the TGI [14] was over 100 µM. For the same compound, the TGI [15] was over 100 µM, the TGI [16] was over 100 µM and the TGI [17] was over 100 µM. For the same compound, the TGI [18] was over 100 µM, the TGI [19] was over 100 µM and the TGI [20] was over 100 µM. It also gave a TGI [21] of over 100 µM, a TGI [23] of over 100 µM and a TGI [24] of over 100 µM. For the same compound, the TGI [25] was over 100 µM, the TGI [26] was over 100 µM and the TGI [27] was over 100 µM. For the same compound, the TGI [28] was over 100 µM, the TGI [57] was over 100 µM and the TGI [29] was over 100 µM. The TGI [30] was over 100 µM, the TGI [31] was over 100 µM and the TGI [32] was over 100 µM. For the same compound, the TGI [34] was over 100 µM, the TGI [35] was over 100 µM and the TGI [36] was over 100 µM. It also gave a TGI [37] of over 100 µM, a TGI [38] of over 100 µM and a TGI [40] of over 100 µM. The TGI [41] was over 100 µM, the TGI [42] was over 100 µM and the TGI [43] was over 100 µM. For the same compound, the TGI [44] was over 100 µM, the TGI [59] was over 100 µM and the TGI [45] was over 100 µM. The TGI [46] was over 100 µM, the TGI [47] was over 100 µM and the TGI [48] was over 100 µM. It also gave a TGI [49] of over 100 µM, a TGI [50] of over 100 µM and a TGI [58] of over 100 µM.

CCCCCCC(=O)OC[n+]1ccc2c(C)c3[nH]c4ccccc4c3c(C)c2c1 showed a TGI [2] of 2.19 µM, a TGI [4] of 12.4 µM and a TGI [51] of 6.55 µM. It also gave a TGI [11] of over 100 µM, a TGI [13] of 24.7 µM and a TGI [55] of 23.9 µM. The TGI [14] was 30.8 µM, the TGI [17] was 2.96 µM and the TGI [23] was 12.7 µM. It also gave a TGI [29] of 3.6 µM, a TGI [31] of 1.69 µM and a TGI [32] of 2.26 µM. For the same compound, the TGI [33] was over 100 µM, the TGI [34] was 2.52 µM and the TGI [37] was 37.8 µM. The TGI [38] was 3.1 µM, the TGI [40] was 6.31 µM and the TGI [59] was 8.77 µM. For the same compound, the TGI [46] was 14.3 µM, the TGI [49] was 16.4 µM and the TGI [50] was 26 µM.

CCOC(=O)/C(=C\c1ccc(O)c(OC)c1)C(=O)c1ccccc1 gave a TGI [1] of 37.6 µM, a TGI [2] of 39 µM and a TGI [3] of 51.3 µM. It also gave a TGI [4] of 36 µM, a TGI [51] of over 58.7 µM and a TGI [5] of 27.4 µM. For the same compound, the TGI [6] was over 69.1 µM, the TGI [52] was 38.2 µM and the TGI [60] was 61.4 µM. It also gave a TGI [8] of over 53.3 µM, a TGI [9] of 38.1 µM and a TGI [54] of 28.7 µM. It also gave a TGI [10] of 24.8 µM, a TGI [11] of 52.4 µM and a TGI [12] of over 100 µM. It also gave a TGI [55] of 70.7 µM, a TGI [56] of over 66.8 µM and a TGI [14] of 39 µM. It also gave a TGI [15] of over 31.8 µM, a TGI [16] of 34.3 µM and a TGI [17] of over 56.7 µM. The TGI [18] was 21.7 µM, the TGI [19] was over 39.5 µM and the TGI [20] was over 48 µM. The TGI [21] was 79.6 µM, the TGI [22] was over 49 µM and the TGI [23] was over 52.2 µM. For the same compound, the TGI [24] was over 53 µM, the TGI [25] was 23.7 µM and the TGI [26] was over 60.2 µM. The TGI [27] was 21.9 µM, the TGI [28] was 54.3 µM and the TGI [57] was over 40.3 µM. It also gave a TGI [29] of over 59.3 µM, a TGI [30] of 18.3 µM and a TGI [31] of 42.1 µM. For the same compound, the TGI [32] was 57.8 µM, the TGI [34] was 28.1 µM and the TGI [35] was over 52.6 µM. It also gave a TGI [36] of 28 µM, a TGI [37] of 34.8 µM and a TGI [38] of 27.7 µM. For the same compound, the TGI [39] was 29.8 µM, the TGI [40] was over 61.4 µM and the TGI [41] was 33.5 µM. For the same compound, the TGI [42] was over 45.8 µM, the TGI [43] was 89.5 µM and the TGI [44] was 8.36 µM. For the same compound, the TGI [59] was 62.7 µM, the TGI [45] was 32.4 µM and the TGI [46] was over 57.5 µM. For the same compound, the TGI [47] was 36.2 µM, the TGI [48] was over 49.7 µM and the TGI [49] was 28.6 µM. The TGI [50] was over 51 µM and the TGI [58] was over 52 µM.
